From US10918687B2, “Kava derived therapeutic compounds and methods of use thereof” (KUALITY HERBCEUTICS LLC, priority 2013, dated 2021)

Assays:
[1] = tested on: APAP-induced hepatotoxicity; test: Short-term combination study: potentiation of APAP-induced hepatotoxicity in C57BL/6 mice
Description: Six week-old female C57BL/6J mice (Jackson Laboratories, ME) were housed at specific pathogen-free animal facilities of Research Animal Resources, University of Minnesota with free access to standard rodent food and water. All mice were acclimatized for one week before being used for experiments. Mice were gavaged with dose formulations at the indicated doses and times, euthanized by CO2 overdosing with necropsy performed by experienced researchers.
The short-term combination studies were designed to evaluate the potential synergism of kava and its chemicals to APAP induced hepatotoxicity. C57BL/6 mice were randomized (8-15 mice per group) and were administered with PEG-400 (200 μL), kava (500 mg/kg bodyweight), DHM or FKA and FKB in PEG-400 (200 μL) at the indicated doses daily via oral gavage for two days. On the third day, mice in the respective groups were co-administered with APAP (800 mg/kg bodyweight) in PEG-400 (200 μL). Bodyweight was recorded daily. Necropsies were performed 24 hours after the last gavage by experienced researchers. Serum from each mouse was analyzed for ALT and AST. Livers were collected and preserved in 10% neutral buffered formalin. Appropriately fixed tissues were processed into paraffin blocks using standard histological techniques, and 5 μm sections were cut and stained with hematoxylin and eosin (H&E).
The clinical chemistry data were reported as mean±SD (n=4-15). […] One-way analysis of variance (ANOVA) was used to compare the means among different groups in the short-term combination studies. Dunnett's test was used for comparisons of APAP and other treatment groups when the one-way ANOVA analysis was statistically significant. p-value≤0.05 was considered statistically significant. All analyses were conducted in GraphPad Prism 4 (GraphPad Software, Inc. La Jolla, Calif.).

[2] = tested on: NNK-induced DNA adducts in lung tissues; test: NNK-induced DNA adducts in A/J mouse lung tissues (LC-ESI-MS/MS); assay type: in vivo, A/J mice; settings: 24 h after NNK
Description: DNA was isolated from the whole lung tissue of each individual mouse following Puregene DNA isolation protocol (Qiagen Corp, Valencia, Calif.) (Urban et al., Chem Res Toxicol 2012; 25:2167-78). 7-pobG, O^2-pobdT, O^6-pobdG, and O^6-mG were quantified by LC-ESI-MS/MS, following established protocols (Urban et al., Chem Res Toxicol 2012; 25:2167-78; Peterson et al., Cancer Res 1991; 51:5557-64).
After one-week acclimation, A/J mice were weighed and randomized into seven groups (3 mice per group) and switched to the AIN-93 G diet on a date defined as Day 1. Mice in Groups 1 and 2 were given the AIN-93 G diet during Day 1-Day 7. Mice in Groups 3-7 were given the AIN-93 G diet supplemented with desmethoxyyangonin, (+)-DHK, (+)-kavain, (+)-DHM, or (+)-methysticin respectively, at a dose of 1 mg/g of diet during Day 1-Day 7. Mice in Groups 2-7 were given a single dose of NNK at 100 mg/kg bodyweight in saline (0.1 ml) via intraperitoneal (i.p.) injection at the beginning of Day 7 while mice in Group 1 were given saline (0.1 ml). Mice were euthanized by CO2 overdosing 24 h after NNK treatment, and lung tissues were collected and stored at −80° C. until DNA isolation. A number of NNK-induced DNA modifications (O^6-mG, 7-pobG, O^6-pobdG and O^2-pobdT) were quantified by following a reported procedure (Leitzman, P et al. (2014) Cancer. Prev. Res., 7: 86-96).
(§1) After one-week acclimation, A/J mice were weighed and randomized into ten groups (3 mice per group except for Group 1 that had one mouse as the negative control) and switched to the AIN-93 G diet on a date defined as Day 1. Mice in Groups 1 and 2 were given the AIN-93 G diet during Day 1-Day 7. Mice in Groups 3-10 were given the AIN-93 G diets supplemented with kava, (+)-DHK, (+)-DHM, and synthetic (±)-DHM respectively at the specified dose during Day 1-Day 7. Mice in Groups 2-10 were given a single dose of NNK at 100 mg/kg bodyweight in saline (0.1 ml) via i.p. injection at the beginning of Day 7 while the mouse in Group 1 was given saline (0.1 ml). Mice were euthanized by CO2 overdosing 24 h after NNK treatment, and lung and liver tissues were collected and stored at −80° C. until DNA isolation. A set of NNK-induced DNA adducts (O^6-mG, 7-mG, 7-pobG, O^6-pobdG, O^2-pobdT, 7-phbG, O^6-phbdG and O^2-phbdT) were quantified by following reported procedures (Leitzman, P et al. (2014) Cancer. Prev. Res., 7: 86-96; Peterson, L A et al. (2013) Chem. Res. Toxicol. 26: 1464-1473; Upadhyaya, P et al. (2008) Chem. Res. Toxicol. 21: 1468-1476). For 7-mG isolation, DNA (30 μg) was dissolved in 10 mM sodium phosphate buffer, pH 7 (500 μL) and spiked with [^13C1^2H3]7-mG (10 pmol). Samples were heated to 80° C. for 30 minutes. An aliquot (100 μL) was removed for 7-mG analysis.

[3] = tested on: NNK-induced DNA damage in liver tissues; test: NNK-induced DNA damage in A/J mouse liver tissues; assay type: in vivo, A/J mice; settings: diet Day 1-Day 7, 24 h after NNK; data not shown
Procedure: DNA was isolated and purified from ˜100 mg lung and liver tissues of each mouse, following Genomic-tip 100/G protocol from Qiagen Corp (Valencia, Calif.).
as §1

[4] = tested on: NNK-induced lung tumorigenesis; test: NNK-induced lung adenoma formation in A/J mice; assay type: in vivo; settings: Example 4, Day 119
Procedure: Female A/J mice, 5-6 weeks of age from the Jackson Laboratory (Bar Harbor, Me.), were handled according to animal welfare protocols approved by IACUC at the University of Minnesota. […] After one-week acclimation, mice were weighed, randomized into different groups and switched to AIN-93G-powdered diet, defined as Day 1. The number of mice in each group was specified in the Result Section. On Day 7 and Day 14, mice in the negative control groups received 0.1 mL physiological saline solution while mice in the other groups received NNK (100 and 67 mg/kg respectively in 0.1 mL of physiological saline solution) via i.p. injection. At the end of Day 21, mice were switched to AIN-93M-powdered diet until the end of the study. Diet consumption was measured twice weekly and bodyweight was monitored weekly. All mice were euthanized with an overdose of carbon dioxide. The lungs were collected and tumors on the surface of the lung were counted.
Data on lung adenoma multiplicity were reported as mean±SD (n=5-40). […] For Experiment 2, unpaired t-test was used for comparison between NNK control and kava treatment groups. Two-sided p-value≤0.05 was considered statistically significant. Data on DNA adducts were reported as mean±SD (n=3). For the time-course study, unpaired […] was used for comparisons between NNK control and kava treatment groups. Two-sided p-value≤0.05 was considered statistically significant: *p<0.05, **p<0.01, and ***p<0.001. For the 24-h time point study, one-way ANOVA was used to compare means.
After one-week acclimation, mice were weighed, randomized into eight groups and switched to the AIN-93 G diet on a date defined as Day 1. The number of mice in each group is specified in the Results Section (FIG. 36). Mice were fed diets supplemented with different compounds at the dose specified in the Results Section during Day 1-Day 14. On Day 7 and Day 14, mice in the negative control group received 0.1 mL of saline solution while mice in the other groups received NNK (100 and 67 mg/kg, respectively, in 0.1 mL of saline solution) via i.p. injection. At the end of Day 21, mice were switched to the AIN-93 M diet until the end of the study. The diet was replenished twice weekly. The diet consumption was measured twice weekly and the bodyweight was monitored weekly. This study was terminated at the end of Day 119. All mice were euthanized with CO2 overdosing.

CC(=O)Nc1ccc(O)cc1 [APAP, acetaminophen, reference compound]
serum ALT and AST activities ([1]; APAP alone 800 mg/kg bodyweight via gavage): significantly increased | liver lesions ([1]; APAP alone 800 mg/kg, lesions graded 0 to 4): evenly distributed among different severity categories

COC1=CC(=O)O[C@@H](/C=C/c2ccc3c(c2)OCO3)C1 [(+)-methysticin]
effect on NNK-induced O^6-mG ([2]; isolated kavalactones 1 mg/g of diet Day 1-Day 7): significantly reduced

COC1=CC(=O)O[C@@H](CCc2ccccc2)C1 [(+)-DHK, (+)-dihydrokavain]
effect on NNK-induced DNA damage in the liver tissues [3]: none of the treatments had significant effects | effect on O^6-mG and POB adducts ([2]; 1 mg/g of diet): did not reduce any of these adducts | lung adenoma formation (incidence and multiplicity) ([4]; 0.05 mg/g of diet Day 1-Day 14): no reduction at all | lung adenoma formation (incidence and multiplicity) ([4]; 0.5 mg/g of diet Day 1-Day 14): no reduction at all

COC1=CC(=O)O[C@@H](CCc2ccc3c(c2)OCO3)C1 (racemic) [(±)-DHM, (±)-dihydromethysticin]
effect on NNK-induced DNA damage in the liver tissues [3]: none of the treatments had significant effects | lung adenoma formation (incidence and multiplicity) ([4]; 0.5 mg/g of diet Day 1-Day 14): adenoma free
